The results in this text go back to US12370192B2, “Azole-fused pyridazin-3(2H)-one derivatives” (TAKEDA PHARMACEUTICAL COMPANY LIMITED, priority 2019, dated 2025).

The target of this assay is T1, human GPR139 receptor (Homo sapiens, UniProt Q6DWJ6).
T1 construct: expressed in transfected cells; host or cells: T-REx-CHO (Thermo Fisher Scientific), doxycycline-induced
T1 sequence (Q6DWJ6 1-353): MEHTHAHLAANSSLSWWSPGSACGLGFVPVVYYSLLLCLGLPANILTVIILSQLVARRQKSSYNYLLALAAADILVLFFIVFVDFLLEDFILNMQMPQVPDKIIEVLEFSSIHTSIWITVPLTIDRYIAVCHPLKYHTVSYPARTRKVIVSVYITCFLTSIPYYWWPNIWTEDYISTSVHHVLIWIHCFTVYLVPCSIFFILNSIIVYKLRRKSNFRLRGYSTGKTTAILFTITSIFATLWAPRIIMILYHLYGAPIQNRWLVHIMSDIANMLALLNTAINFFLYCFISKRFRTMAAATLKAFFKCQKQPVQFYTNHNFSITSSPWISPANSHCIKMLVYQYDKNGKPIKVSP
The assay can be described thus: Measurement of GPR139 Activation Via Calcium Signaling (FLIPR, T-REx-CHO cells). In kind it is cell-based. Conditions: T-REx-CHO cells stably expressing human GPR139, 11-point dose response, 10 μM maximum concentration, read-out: GPR139 Potency (pEC50) (converted). As to the method:
Measurement of GPR139 Activation Via Calcium Signaling
This cell-based assay measures the ability of compounds to activate GPR139 in stably transfected T-REx™-CHO cells. T-REx™-CHO cells (Thermo Fisher Scientific®) are stably expressed with human GPR139 receptor, whose expression is controlled by a tetracycline-inducible element. The cells are cultured in medium containing F-12K nutrient mixture-Kaighn's modification, TripleLE™ Express (1×)-phenol red, Dulbecco's phosphate-buffered saline (1×), 10% tetracycline-free FBS, Blasticidin S HCl (10 μg/mL) and Hygromycin B (200 μg/mL). The cells are introduced into the wells of a 384-well black clear bottom plate (Costar®) at 10,000 cells/well. GPR139 receptor expression is induced with 2 μg/mL doxycycline (Sigma D9891). The plate is allowed to stand at room temperature for 10-30 minutes and then incubated at 37° C. and 5% CO2 for 17 hours prior to assay.
Culture media is removed from cells and 45 μL of 1× calcium dye (2.5 mM) is added to each well and incubated at 37° C. and 5% CO2 for 40 minutes. The plate is removed from the incubator and allowed to stand at RT for 20 minutes without a plate cover prior to measurement of calcium signaling. The calcium dye is prepared by adding 10 mL of assay buffer (Hank's Balanced Salt Solution (1×), 1 mM HEPES at pH 7.4) to one vial of calcium dye (FLIPR® Calcium 5 Assay Kit; Molecular Devices) at room temperature, vortexing the mixture until homogenous, and transferring the dye to a 250 mL flask using 10 mL of assay, buffer to rinse the vial. The dye is subsequently transferred to a conical flask, which is filled to the 200 mL mark with assay buffer, and 1 mL of […] probenecid solution (142.68 mg/mL in 1M NaOH aq) is added.
Example compounds suspended in DMSO are received from compound management in microtiter plates (0.25 μL/well) and are diluted in assay buffer (25 μL). Following incubation of the cell plate, the Example compounds are added to the cells (11-point dose response, 10 μM maximum concentration) using a FLIPR® Tetra system (Molecular Devices) and fluorescence is measured continuously for 1 minute. EC50 curves are generated with a four-parameter logistic equation using GraphPad Prism® 6, and activation of GPR139 for each example compound is reported as pEC50.

`Cc1nn(C(C)C)c2c(C)nn(CC(=O)N[C@@H](C)c3ccc(OC(F)(F)F)cc3)c(=O)c12` [Example 100, (S)-2-(1-isopropyl-3,7-dimethyl-4-oxo-1,4-dihydro-5H-pyrazolo[3,4-d]pyridazin-5-yl)-N-(1-(4-(trifluoromethoxy)phenyl)ethyl)acetamide]: the EC50 was 0.363 µM.

Turning to `Cc1ccc([C@H](C)NC(=O)Cn2nc(C)c3c(cnn3C(C)C)c2=O)cc1` [Example 77, (S)-2-(1-isopropyl-7-methyl-4-oxo-1,4-dihydro-5H-pyrazolo[3,4-d]pyridazin-5-yl)-N-(1-(p-tolyl)ethyl)acetamide], the EC50 is 0.0912 µM.

As to `Cc1nn(CC(=O)N[C@@H](C)c2ccc(OC(F)(F)F)cc2)c(=O)c2cnn(C3CC3)c12` [Example 79, (S)-2-(1-cyclopropyl-7-methyl-4-oxo-1,4-dihydro-5/1-pyrazolo[3,4-d]pyridazin-5-yl)-N-(1-(4-(trifluoromethoxy)phenyl)ethyl)acetamide], the EC50 is 0.257 µM.

For `CC(C)n1ncc2c(=O)n(CC(=O)N[C@@H](C)c3ccc(C(F)(F)F)cc3)ncc21` [Example 86, (S)-2-(1-isopropyl-4-oxo-1,4-dihydro-5H-pyrazolo[3,4-d]pyridazin-5-yl)-N-(1-(4-(trifluoromethyl)phenyl)ethyl)acetamide], the EC50 was 0.0832 µM.

Take `Cc1ccc([C@H](C)NC(=O)Cn2ncc3c(c(C4CC4)nn3C(C)C)c2=O)c(F)c1` [Example 95, (S)-2-(3-cyclopropyl-1-isopropyl-4-oxo-1,4-dihydro-5H-pyrazolo[3,4-d]pyridazin-5-yl)-N-(1-(2-fluoro-4-methylphenyl)ethyl)acetamide]: the EC50 is 0.117 µM.

Regarding `CC(C)n1ncc2c(=O)n(CC(=O)N[C@@H](C)c3ccc(OC(F)(F)F)cc3)ncc21` [Example 87, (S)-2-(1-isopropyl-4-oxo-1,4-dihydro-5H-pyrazolo[3,4-d]pyridazin-5-yl)-N-(1-(4-(trifluoromethoxy)phenyl)ethyl)acetamide], the EC50 is 0.126 µM.

On to `Cc1ccc([C@H](C)NC(=O)Cn2ncc3c(c(C)nn3C(C)C)c2=O)cc1` [Example 46, (S)-2-(1-isopropyl-3-methyl-4-oxo-1,4-dihydro-5H-pyrazolo[3,4-d]pyridazin-5-yl)-N-(1-(p-tolyl)ethyl)acetamide], for which the EC50 was 0.0776 µM.

Take `Cn1nc(C2CC2)c2c(=O)n(CC(=O)N3CCCC3c3ccc(Cl)cc3)ncc21` (stereo not drawn) [Example 84, 5-(2-(2-(4-chlorophenyl)pyrrolidin-1-yl)-2-oxoethyl)-3-cyclopropyl-1-methyl-1,5-dihydro-4H-pyrazolo[3,4-d]pyridazin-4-one]: the EC50 is 0.407 µM.

Regarding `Cc1nn(CC(=O)N[C@@H](C)c2ccc(OC(F)(F)F)cc2)c(=O)c2cnn(C(C)C)c12` [Example 76, (S)-2-(1-isopropyl-7-methyl-4-oxo-1,4-dihydro-5H-pyrazolo[3,4-d]pyridazin-5-yl)-N-(1-(4-(trifluoromethoxy)phenyl)ethyl)acetamide], the EC50 was 1.02 µM.

As for `COc1ccc([C@H](C)NC(=O)Cn2nc(C)c3cnn(C(C)(C)C)c3c2=O)cc1` [Example 9, (S)-2-(1-(tert-butyl)-4-methyl-7-oxo-1,7-dihydro-6H-pyrazolo[3,4-d]pyridazin-6-yl)-N-(1-(4-methoxyphenyl)ethyl)acetamide], the EC50 is 0.0955 µM.

For the compound `Cc1nn(CC(=O)N[C@@H](C)c2ccc(C(F)(F)F)cc2)c(=O)c2cnn(C3CC3)c12` [Example 78, (S)-2-(1-cyclopropyl-7-methyl-4-oxo-1,4-dihydro-5H-pyrazolo[3,4-d]pyridazin-5-yl)-N-(1-(4-(trifluoromethyl)phenyl)ethyl)acetamide], the EC50 was 0.0794 µM.

Consider `CC(C)n1nc(C2CC2)c2c(=O)n(CC(=O)N[C@@H](C)c3ccc(C(F)(F)F)cc3)ncc21` [Example 98, (S)-2-(3-cyclopropyl-1-isopropyl-4-oxo-1,4-dihydro-5H-pyrazolo[3,4-d]pyridazin-5-yl)-N-(1-(4-(trifluoromethyl)phenyl)ethyl)acetamide], for which the EC50 was 0.275 µM.

As for `Cc1ccc([C@H](C)NC(=O)Cn2ncc3c(c(C4CC4)nn3C(C)C)c2=O)cc1` [Example 97, (S)-2-(3-cyclopropyl-1-isopropyl-4-oxo-1,4-dihydro-5H-pyrazolo[3,4-d]pyridazin-5-yl)-N-(1-(p-tolyl)ethyl)acetamide], the EC50 was 0.049 µM.

Turning to `Cc1ccc([C@H](C)NC(=O)Cn2nc(C)c3c(cnn3C(C)C)c2=O)c(F)c1` [Example 83, (S)—N-(1-(2-fluoro-4-methylphenyl)ethyl)-2-(1-isopropyl-7-methyl-4-oxo-1,4-dihydro-5H-pyrazolo[3,4-d]pyridazin-5-yl)acetamide], the EC50 is 0.0933 µM.

For `Cc1ccc([C@H](C)NC(=O)Cn2ncc3c(cnn3C3CC3)c2=O)cc1` [Example 91, (S)-2-(1-cyclopropyl-4-oxo-1,4-dihydro-5H-pyrazolo[3,4-d]pyridazin-5-yl)-N-(1-(p-tolyl)ethyl)acetamide], the EC50 was 0.0589 µM.

On to `CC(C)n1nc(C2CC2)c2c(=O)n(CC(=O)N[C@@H](C)c3ccc(OC(F)(F)F)cc3)ncc21` [Example 96, (S)-2-(3-cyclopropyl-1-isopropyl-4-oxo-1,4-dihydro-5H-pyrazolo[3,4-d]pyridazin-5-yl)-N-(1-(4-(trifluoromethoxy)phenyl)ethyl)acetamide], for which the EC50 is 0.501 µM.

In the case of `Cc1nn(C2CC2)c2cnn(CC(=O)N[C@@H](C)c3ccc(OC(F)(F)F)cc3)c(=O)c12` [Example 109, (S)-2-(1-cyclopropyl-3-methyl-4-oxo-1,4-dihydro-5H-pyrazolo[3,4-d]pyridazin-5-yl)-N-(1-(4-(trifluoromethoxy)phenyl)ethyl)acetamide], the EC50 was 0.282 µM.

Take `Cc1ccc([C@H](C)NC(=O)Cn2ncc3c(cnn3C3CC3)c2=O)c(F)c1` [Example 90, (S)-2-(1-cyclopropyl-4-oxo-1,4-dihydro-5H-pyrazolo[3,4-d]pyridazin-5-yl)-N-(1-(2-fluoro-4-methylphenyl)ethyl)acetamide]: the EC50 was 0.0589 µM.
